# Test results: publication PMC11148114 (FEBS Open Bio, 2024)
# Key:
# [1] = biological target: Staphylococcus aureus lipase (Staphylococcus aureus); experiment: SEC + other: SEC-SAXS
# [2] = biological target: T1, Staphylococcus aureus lipase (SAL) (Staphylococcus aureus, UniProt A0A0U1MWF9); experiment: p-nitrophenyl butyrate hydrolysis, absorbance […] nm; format: biochemical
# T1 construct: gene lip; one Ca and one Zn per monomer
Compound,stoichiometry N [1],IC50 [2] [µM]
Staphylococcus aureus lipase (from UniProt A0A1R3UHM3 1-645) (enzyme),2,
"CCCCCCCCCCC/C=C\CCCCC(=O)OC [PSM, petroselinic acid methyl ester]",,10.5
"CCCCCCCCCCC/C=C\CCCCC(=O)O [PSA, petroselinic acid]",,3.4
